Values quoted from earlier work, collected in patent publication US20080095722A1, “Extended Surface Aggregates in the Treatment of Skin Conditions” (IDEA AG, priority 2004, published 2008).
Read-outs that look alike come from different tables or passages of the source.

Experiments:
melanocytes = settings: cell cultures, cited from earlier work
erythema = settings: gel base or alcoholic solution; cited from earlier work

CC(=O)Oc1ccccc1C(=O)O [acetylsalicylic acid]
effect on melanocytes (melanocytes; low concentrations): stimulate melanocytes | effect on melanocytes (melanocytes; very high concentrations): may cause melanocyte apoptosis

COc1ccc2c(c1)c(CC(=O)O)c(C)n2C(=O)c1ccc(Cl)cc1 [indomethacin]
inhibition of the appearance of erythema (erythema): some inhibition of the appearance of erythema
